Data on 4 molecules can be found in ChEMBL document CHEMBL1201862, “PubChem BioAssay data set” (2004).

For orientation: IC50 means the concentration at which inhibition is half-maximal. The EC50 is the concentration giving half of the maximal effect. In general, AC50 refers to the concentration giving half of the maximal activity seen.

The structures appear in SMILES notation. Calls of active or inactive are those of the source. Where only a bound is given, the exact number is not on record here.

For assay [1], the target named is Protein Wnt-3a (Mus musculus, UniProt P27467). Description: SAR analysis of small molecule antagonists of Gli-SUFU in a Wnt3a luminescent reporter assay. In kind it is functional. (A reporter such as luciferase makes a cellular process visible.)
A short description of assay [2]: HGIII-sPLA2 enzyme inhibition potency – biochemical, QFRET, IC50, dose response (AID 743457).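 Note: green fluorescence rise as the enzyme cleaves BODIPY PC-A2 in liposomes.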
The target in assay [3] is T1, RNA-binding protein pos-1 (Caenorhabditis elegans, UniProt G5EF15).
T1 sequence (G5EF15 whole entry): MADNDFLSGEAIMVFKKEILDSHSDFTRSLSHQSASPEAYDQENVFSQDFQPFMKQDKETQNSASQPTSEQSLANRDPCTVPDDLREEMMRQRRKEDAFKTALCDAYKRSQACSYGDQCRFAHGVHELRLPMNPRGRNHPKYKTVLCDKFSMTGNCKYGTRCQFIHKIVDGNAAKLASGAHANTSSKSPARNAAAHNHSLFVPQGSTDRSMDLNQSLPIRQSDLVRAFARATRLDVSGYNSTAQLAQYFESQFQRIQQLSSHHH
The experiment in a line: disruptors of C. elegans POS-1 RNA interaction – biochemical, fluorescence polarization, dose response (AID 1964).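 Note: purified POS-1 fused to maltose binding protein made in E. coli; potency of compounds blocking POS-1 binding to fluorescent RNA.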 In general terms: Fluorescence polarisation rises when a labelled molecule tumbles more slowly, as on binding a larger partner.

Assay [4] is described as follows: cells. The assay is classed as functional, cell-based.
The target in assay [5] is T2, Zinc finger protein mex-5 (Caenorhabditis elegans, UniProt Q9XUB2).
T2 sequence (Q9XUB2 whole entry): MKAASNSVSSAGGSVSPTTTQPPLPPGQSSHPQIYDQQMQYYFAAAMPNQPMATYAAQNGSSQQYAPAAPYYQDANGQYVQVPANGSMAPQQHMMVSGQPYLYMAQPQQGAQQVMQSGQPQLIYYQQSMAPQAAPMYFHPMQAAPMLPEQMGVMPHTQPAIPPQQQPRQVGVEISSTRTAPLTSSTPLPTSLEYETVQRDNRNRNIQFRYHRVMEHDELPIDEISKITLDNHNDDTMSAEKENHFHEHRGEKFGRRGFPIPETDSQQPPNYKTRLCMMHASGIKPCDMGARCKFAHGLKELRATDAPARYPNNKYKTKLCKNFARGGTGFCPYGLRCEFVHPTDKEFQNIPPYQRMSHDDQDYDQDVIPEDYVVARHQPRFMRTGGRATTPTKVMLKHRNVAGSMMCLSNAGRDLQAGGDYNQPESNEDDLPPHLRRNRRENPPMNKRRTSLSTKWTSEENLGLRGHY
The experiment in a line: potency of MEX-5 RNA-binding blockers – biochemical, C. elegans, fluorescence polarization, dose response (AID 1960).

A short description of assay [6]: cells. The assay is classed as functional, cell-based. The source holds these as a separate data set.
The target in assay [7] is FAD-linked sulfhydryl oxidase ALR (Homo sapiens, UniProt P55789). Description: ALR-catalysed DTT oxidation blockers – biochemical, H2O2 detection, luminescence, cherry-pick, dose response (AID 493248).
Assay [8] can be described thus: reduction of Shn3 3'UTR-driven luciferase in osteoblasts – cell-based, Clone20 osteoblasts, firefly luciferase, cherry-picked, dose response (AID 624132).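 Note: firefly luciferase luminescence from reporter carrying the Shn3 3'UTR in osteoblasts.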 The assay is classed as functional.
Assay [9] can be described thus: loss of viability in HepG2 cells – cell-based, CellTiter-Glo, cherry-picked, cytotoxicity control for Shn3 inhibitor project, dose response (AID 624134). In kind it is functional. For orientation: Cellular ATP, detected with luciferase, serves as a proxy for viable cell number.
A short description of assay [10]: non-specific 3'UTR reporter inhibition in Clone20-Shn3RL – cell-based, Renilla luciferase, cherry-picked, counter-screen for Shn3 inhibitor project, dose response (AID 624133). The assay is classed as functional.
In assay [11] the target is Albumin (Bos taurus, UniProt P02769). The experiment in a line: Counterscreen for inhibitors of T-cell receptor (TCR)-CD3 interaction: Fluorescence-based biochemical high throughput dose response assay to identify inhibitors of T-cell receptor (TCR)-CD3 interaction using a TAMRA-labeled BSA probe. In kind it is functional.
The target of assay [12] is T3, Caspase-6 (Homo sapiens, UniProt P55212).
T3 sequence (P55212 whole entry): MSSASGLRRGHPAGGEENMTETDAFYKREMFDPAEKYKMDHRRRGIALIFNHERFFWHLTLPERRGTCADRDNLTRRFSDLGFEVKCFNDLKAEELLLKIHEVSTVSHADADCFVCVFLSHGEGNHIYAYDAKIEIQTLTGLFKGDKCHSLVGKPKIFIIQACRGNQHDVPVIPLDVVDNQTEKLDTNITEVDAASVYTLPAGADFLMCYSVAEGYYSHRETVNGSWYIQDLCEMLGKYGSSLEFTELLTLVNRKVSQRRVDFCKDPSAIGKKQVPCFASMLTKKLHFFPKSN
Description: inhibition of CASP6 peptide cleavage – biochemical, VEID-R110 fluorescence, cherry-pick, dose response (AID 720632).

For assay [13], the target named is T4, Histone-lysine N-methyltransferase NSD2 (Homo sapiens, UniProt O96028).
T4 sequence (O96028 whole entry): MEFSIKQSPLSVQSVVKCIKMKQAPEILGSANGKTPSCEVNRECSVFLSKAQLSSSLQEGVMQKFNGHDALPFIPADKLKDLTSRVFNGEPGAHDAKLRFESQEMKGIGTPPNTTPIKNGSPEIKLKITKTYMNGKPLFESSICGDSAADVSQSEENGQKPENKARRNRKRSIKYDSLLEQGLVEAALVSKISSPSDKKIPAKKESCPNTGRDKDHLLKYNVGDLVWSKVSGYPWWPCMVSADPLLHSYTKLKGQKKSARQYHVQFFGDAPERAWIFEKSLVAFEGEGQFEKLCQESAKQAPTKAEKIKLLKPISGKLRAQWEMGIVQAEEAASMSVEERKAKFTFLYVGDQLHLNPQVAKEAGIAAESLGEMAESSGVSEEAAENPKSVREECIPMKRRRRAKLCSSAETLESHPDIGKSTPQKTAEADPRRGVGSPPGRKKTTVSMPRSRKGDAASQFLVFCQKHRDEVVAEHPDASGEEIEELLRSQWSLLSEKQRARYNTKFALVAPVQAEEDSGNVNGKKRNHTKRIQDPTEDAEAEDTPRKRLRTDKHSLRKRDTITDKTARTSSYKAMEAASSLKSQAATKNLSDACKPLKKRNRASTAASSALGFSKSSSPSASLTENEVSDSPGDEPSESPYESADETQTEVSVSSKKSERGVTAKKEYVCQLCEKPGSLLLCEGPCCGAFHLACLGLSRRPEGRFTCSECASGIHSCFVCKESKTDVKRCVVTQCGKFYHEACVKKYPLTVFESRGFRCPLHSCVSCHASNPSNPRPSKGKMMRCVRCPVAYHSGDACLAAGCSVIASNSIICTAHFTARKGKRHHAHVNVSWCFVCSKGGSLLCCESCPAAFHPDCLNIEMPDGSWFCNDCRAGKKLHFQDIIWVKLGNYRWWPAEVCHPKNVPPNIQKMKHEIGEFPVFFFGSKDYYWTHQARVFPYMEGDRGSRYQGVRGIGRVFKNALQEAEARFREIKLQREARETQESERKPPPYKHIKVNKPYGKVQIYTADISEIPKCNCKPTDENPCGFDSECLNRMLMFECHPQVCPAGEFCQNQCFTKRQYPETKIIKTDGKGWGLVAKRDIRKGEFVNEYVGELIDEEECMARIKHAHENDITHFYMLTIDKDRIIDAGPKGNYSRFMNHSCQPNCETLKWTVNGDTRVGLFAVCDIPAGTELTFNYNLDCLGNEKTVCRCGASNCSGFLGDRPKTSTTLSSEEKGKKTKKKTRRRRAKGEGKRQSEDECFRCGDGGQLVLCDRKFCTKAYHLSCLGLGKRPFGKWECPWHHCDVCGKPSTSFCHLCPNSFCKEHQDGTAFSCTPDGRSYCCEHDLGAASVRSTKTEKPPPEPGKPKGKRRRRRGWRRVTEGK
The assay is classed as biochemical.

Assay [14] concerns HeLa. The experiment in a line: viability loss in HeLa cells – cell-based, ATP luminescence, cherry-pick samples, cytotoxicity control, dose response (AID 687004). In kind it is functional. Conditions: Homo sapiens.
Assay [15] concerns HEK293. The experiment in a line: viability loss in HEK293T cells – cell-based, ATP luminescence, cherry-pick samples, cytotoxicity control, dose response (AID 687005).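 Note: cells exposed to compound for 48 hours.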 The assay is classed as functional. Conditions: Homo sapiens.
Assay [16] is described as follows: HEK293 Cytotoxicity Assay Measured in Cell-Based System Using Plate Reader - 7071-01_Inhibitor_Dose_CherryPick_Activity_Set2. The assay is classed as functional.

Protein Wnt-3a, sequence (P27467 whole entry): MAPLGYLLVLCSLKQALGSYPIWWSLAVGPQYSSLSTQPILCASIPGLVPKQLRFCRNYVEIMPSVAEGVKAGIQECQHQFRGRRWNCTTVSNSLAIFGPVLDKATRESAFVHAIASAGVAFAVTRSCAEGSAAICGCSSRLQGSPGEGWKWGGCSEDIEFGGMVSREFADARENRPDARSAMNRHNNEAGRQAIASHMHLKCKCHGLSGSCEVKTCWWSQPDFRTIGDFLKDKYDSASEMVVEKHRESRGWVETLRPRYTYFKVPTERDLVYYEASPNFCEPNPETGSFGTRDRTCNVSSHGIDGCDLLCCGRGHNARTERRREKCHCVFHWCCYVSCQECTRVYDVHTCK
Albumin, sequence (P02769 whole entry): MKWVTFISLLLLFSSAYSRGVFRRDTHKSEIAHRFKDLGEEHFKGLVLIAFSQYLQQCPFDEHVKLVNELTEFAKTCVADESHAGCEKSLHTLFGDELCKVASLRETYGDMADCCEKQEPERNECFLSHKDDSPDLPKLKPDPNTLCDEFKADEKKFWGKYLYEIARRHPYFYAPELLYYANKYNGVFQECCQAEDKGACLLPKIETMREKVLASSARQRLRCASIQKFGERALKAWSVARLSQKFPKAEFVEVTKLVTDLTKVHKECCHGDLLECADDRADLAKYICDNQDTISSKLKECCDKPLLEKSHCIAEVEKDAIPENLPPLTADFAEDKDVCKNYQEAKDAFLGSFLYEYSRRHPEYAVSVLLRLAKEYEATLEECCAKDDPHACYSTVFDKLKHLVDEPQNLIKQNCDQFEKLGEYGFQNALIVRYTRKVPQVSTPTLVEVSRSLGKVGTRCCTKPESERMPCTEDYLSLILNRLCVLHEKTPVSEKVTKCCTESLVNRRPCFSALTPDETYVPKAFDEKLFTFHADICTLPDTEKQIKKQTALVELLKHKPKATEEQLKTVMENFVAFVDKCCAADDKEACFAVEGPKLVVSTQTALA
FAD-linked sulfhydryl oxidase ALR, sequence (P55789 whole entry): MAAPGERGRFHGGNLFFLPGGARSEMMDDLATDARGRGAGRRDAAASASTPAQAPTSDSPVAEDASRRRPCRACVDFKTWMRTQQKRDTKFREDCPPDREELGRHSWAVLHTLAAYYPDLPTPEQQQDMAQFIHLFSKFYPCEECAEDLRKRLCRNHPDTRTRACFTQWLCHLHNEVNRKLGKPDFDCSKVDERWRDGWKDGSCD

Consider `CCCCNc1cc(NC(=O)c2ccccc2)ncn1`, for which the IC50 in assay [1] is > 21.8 µM (inactive).

Regarding `CCc1c(-c2nnc(S)n2Cc2ccccc2)csc1C`, in assay [2], the IC50 was > 122 µM (inactive).

As to `Cc1ccc2nc(-c3ccc(O)c(O)c3)cn2c1`, the EC50 was > 75 µM (not active) in [3], > 350 µM (not active) in assay [4], 9.7 µM (active) in assay [5] and 5.03 µM (active) in [6]. For the same molecule, the AC50 was 0.885 µM (active) in assay [7]; 4.2 µM (active) in [8]; > 70 µM (inactive) in assay [9]; 2.47 µM (active) in assay [10]; 12 µM (active) in assay [12]; > 20 µM (inactive) in [13]. The IC50 in assay [11] is > 94.1 µM (inactive).

On to `C[C@H]1CCCCO[C@H](CN(C)C(=O)Nc2ccc(F)cc2)[C@@H](C)CN([C@@H](C)CO)C(=O)c2cc(NS(=O)(=O)c3ccc(Cl)cc3)ccc2O1`, for which the AC50 in assay [14] is 25.5 µM (active); in [15], 30.6 µM (active); in [16] it was 30.6 µM (active).
